Reference: patent US11136329B2, “JAK inhibitors” (Vimalan Biosciences, Inc., priority 2019, dated 2021)

Experiments:
Type in all cases: biochemical
JAK3 = JAK3 (Homo sapiens (Human), UniProt P52333); experiment: JAK/TYK2 assay (Kinase Glo luminescence), JAK3; settings: 1.5 nM enzyme, 2 uM ATP, 4 uM pEY, 1 hr
Experimental: (§1) 10 mM test compound stock or 1 mM control compound stock (tofocitinib, ruxolitinib or staurosporine) in DMSO was diluted to 0.4 mM in DMSO. A 3-fold series dilution was then performed in DMSO to generate 10 different compound concentrations. The assay was carried out in 384-well white plate. 0.5 uL of 40× compound DMSO solution at different concentrations was mixed with 10 uL 2× enzyme prepared in reaction buffer (20 mM HEPES, 10 mM MgCl2, 0.01% Tween, 1 mM DTT, pH 7.5). 10 uL 2× substrate mixture prepared in reaction buffer was then added to start the reaction. A short spin was done to settle down all solutions to the bottom of the plate. Final concentrations of test compound in the reaction mixture were 10000, 3333, 1111, 370, 123, 41.2, 13.7, 4.57, 1.52and 0.51 nM. Concentrations of control compound were ten times less. Enzymatic reaction was conducted at 25° C. for 1-2 hours. 10 uL of Kinase Glo Reagents was added to stop the reaction and generate the luminescent signal which was measured using Envision. Luminescence signal was inversely related to kinase activity. […] The mixture without any compound was the positive control.

TYK2 = TYK2 (Homo sapiens (Human), UniProt P29597); experiment: JAK/TYK2 assay (Kinase Glo luminescence), TYK2; settings: 9 nM enzyme, 2 uM ATP, 30 uM IRS-1, 1 hr
Sequence of TYK2 (P29597 whole entry, species assumed): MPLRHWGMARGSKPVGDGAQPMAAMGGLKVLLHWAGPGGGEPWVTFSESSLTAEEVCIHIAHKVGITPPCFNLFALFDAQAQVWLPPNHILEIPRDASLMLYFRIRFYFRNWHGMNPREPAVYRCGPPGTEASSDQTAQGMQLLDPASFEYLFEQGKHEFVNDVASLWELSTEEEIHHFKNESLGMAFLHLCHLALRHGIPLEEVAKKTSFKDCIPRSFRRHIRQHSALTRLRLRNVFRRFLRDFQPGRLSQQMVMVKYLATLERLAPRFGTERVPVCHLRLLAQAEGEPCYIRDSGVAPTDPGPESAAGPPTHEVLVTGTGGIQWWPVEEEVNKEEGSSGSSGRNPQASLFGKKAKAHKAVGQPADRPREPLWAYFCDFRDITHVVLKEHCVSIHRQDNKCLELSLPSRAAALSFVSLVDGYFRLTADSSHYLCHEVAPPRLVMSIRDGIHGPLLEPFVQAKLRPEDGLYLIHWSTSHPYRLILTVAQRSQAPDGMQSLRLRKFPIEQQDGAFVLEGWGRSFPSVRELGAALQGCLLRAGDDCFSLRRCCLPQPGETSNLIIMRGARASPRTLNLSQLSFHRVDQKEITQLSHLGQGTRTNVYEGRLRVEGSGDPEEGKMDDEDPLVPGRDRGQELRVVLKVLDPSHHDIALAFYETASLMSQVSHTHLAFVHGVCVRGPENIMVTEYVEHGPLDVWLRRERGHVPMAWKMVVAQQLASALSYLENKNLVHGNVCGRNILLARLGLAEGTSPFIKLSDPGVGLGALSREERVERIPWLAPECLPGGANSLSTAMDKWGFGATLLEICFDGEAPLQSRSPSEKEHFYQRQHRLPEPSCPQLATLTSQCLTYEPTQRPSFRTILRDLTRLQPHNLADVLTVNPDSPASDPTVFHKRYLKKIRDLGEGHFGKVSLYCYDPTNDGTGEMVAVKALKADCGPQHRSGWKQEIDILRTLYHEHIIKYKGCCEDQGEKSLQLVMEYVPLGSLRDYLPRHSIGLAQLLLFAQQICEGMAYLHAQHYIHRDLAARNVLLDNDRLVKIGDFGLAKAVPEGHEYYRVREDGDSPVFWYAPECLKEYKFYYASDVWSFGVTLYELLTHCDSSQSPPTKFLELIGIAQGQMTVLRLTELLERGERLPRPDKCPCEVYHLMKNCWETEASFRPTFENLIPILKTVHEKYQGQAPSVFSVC
Experimental: as §1

JAK1 = JAK1 (Homo sapiens (Human), UniProt P23458); experiment: JAK/TYK2 assay (Kinase Glo luminescence), JAK1; settings: 7.5 nM enzyme, 2 uM ATP, 30 uM IRS-1, 1 hr
Sequence of JAK1 (P23458 whole entry, species assumed): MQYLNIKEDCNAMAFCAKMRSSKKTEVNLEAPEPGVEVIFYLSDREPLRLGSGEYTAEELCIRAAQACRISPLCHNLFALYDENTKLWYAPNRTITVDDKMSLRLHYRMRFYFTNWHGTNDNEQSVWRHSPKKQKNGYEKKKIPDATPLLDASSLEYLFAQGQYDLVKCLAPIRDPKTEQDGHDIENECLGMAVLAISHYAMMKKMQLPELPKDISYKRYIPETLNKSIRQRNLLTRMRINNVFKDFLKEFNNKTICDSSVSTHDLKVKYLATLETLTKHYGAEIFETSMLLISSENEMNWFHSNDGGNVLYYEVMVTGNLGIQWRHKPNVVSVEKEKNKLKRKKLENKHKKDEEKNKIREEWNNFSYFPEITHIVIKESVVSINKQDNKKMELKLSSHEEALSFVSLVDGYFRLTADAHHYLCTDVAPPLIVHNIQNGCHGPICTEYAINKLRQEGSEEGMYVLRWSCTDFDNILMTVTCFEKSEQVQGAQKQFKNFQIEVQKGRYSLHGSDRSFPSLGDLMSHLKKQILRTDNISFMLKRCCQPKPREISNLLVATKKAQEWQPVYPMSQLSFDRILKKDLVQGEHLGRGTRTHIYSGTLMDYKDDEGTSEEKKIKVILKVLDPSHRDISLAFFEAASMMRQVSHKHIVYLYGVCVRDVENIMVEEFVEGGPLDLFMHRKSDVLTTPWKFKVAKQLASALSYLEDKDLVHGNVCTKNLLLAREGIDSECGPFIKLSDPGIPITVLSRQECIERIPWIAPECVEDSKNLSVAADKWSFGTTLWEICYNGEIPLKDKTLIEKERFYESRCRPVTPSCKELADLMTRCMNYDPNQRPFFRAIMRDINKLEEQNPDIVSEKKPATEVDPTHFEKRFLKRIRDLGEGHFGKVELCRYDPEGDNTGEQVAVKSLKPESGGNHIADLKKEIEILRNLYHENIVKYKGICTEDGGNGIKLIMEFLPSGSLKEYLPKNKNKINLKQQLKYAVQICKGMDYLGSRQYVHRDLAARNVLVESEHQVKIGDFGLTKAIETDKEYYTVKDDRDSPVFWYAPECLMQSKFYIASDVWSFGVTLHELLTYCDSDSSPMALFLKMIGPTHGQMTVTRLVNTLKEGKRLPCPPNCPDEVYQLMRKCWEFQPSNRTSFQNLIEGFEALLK
Experimental: as §1

JAK2 = JAK2 (Homo sapiens (Human), UniProt O60674); experiment: JAK/TYK2 assay (Kinase Glo luminescence), JAK2; settings: 0.8 nM enzyme, 2 uM ATP, 4 uM pEY, 1 hr
Sequence of JAK2 (O60674 whole entry, species assumed): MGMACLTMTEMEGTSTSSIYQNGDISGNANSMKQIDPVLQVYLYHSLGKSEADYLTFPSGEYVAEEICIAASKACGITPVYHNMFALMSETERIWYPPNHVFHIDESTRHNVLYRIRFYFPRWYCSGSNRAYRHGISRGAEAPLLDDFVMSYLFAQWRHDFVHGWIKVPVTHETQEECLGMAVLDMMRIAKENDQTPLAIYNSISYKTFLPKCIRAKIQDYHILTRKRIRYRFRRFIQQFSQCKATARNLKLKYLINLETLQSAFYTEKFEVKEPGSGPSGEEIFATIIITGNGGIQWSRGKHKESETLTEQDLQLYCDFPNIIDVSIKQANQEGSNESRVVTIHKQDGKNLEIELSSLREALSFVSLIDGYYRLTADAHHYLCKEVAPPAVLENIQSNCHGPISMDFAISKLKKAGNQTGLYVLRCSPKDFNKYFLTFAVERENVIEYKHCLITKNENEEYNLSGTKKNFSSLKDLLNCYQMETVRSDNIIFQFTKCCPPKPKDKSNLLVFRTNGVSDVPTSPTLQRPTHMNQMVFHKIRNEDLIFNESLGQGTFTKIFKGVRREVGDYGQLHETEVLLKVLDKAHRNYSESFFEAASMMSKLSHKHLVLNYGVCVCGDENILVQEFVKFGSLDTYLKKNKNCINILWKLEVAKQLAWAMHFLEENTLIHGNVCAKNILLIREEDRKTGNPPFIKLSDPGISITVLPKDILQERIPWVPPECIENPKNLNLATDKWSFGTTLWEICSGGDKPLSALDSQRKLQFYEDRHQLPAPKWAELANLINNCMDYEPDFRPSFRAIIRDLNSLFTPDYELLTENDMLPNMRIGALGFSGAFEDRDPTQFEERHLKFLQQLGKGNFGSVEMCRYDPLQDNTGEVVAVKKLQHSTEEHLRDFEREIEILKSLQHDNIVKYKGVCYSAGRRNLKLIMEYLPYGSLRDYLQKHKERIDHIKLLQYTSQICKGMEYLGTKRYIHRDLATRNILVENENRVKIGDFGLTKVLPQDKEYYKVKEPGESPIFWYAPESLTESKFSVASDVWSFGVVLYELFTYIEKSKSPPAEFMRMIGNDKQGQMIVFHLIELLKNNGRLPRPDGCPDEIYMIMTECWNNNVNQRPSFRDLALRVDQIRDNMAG
Experimental: as §1

Sequence of JAK3 (P52333 whole entry, species assumed): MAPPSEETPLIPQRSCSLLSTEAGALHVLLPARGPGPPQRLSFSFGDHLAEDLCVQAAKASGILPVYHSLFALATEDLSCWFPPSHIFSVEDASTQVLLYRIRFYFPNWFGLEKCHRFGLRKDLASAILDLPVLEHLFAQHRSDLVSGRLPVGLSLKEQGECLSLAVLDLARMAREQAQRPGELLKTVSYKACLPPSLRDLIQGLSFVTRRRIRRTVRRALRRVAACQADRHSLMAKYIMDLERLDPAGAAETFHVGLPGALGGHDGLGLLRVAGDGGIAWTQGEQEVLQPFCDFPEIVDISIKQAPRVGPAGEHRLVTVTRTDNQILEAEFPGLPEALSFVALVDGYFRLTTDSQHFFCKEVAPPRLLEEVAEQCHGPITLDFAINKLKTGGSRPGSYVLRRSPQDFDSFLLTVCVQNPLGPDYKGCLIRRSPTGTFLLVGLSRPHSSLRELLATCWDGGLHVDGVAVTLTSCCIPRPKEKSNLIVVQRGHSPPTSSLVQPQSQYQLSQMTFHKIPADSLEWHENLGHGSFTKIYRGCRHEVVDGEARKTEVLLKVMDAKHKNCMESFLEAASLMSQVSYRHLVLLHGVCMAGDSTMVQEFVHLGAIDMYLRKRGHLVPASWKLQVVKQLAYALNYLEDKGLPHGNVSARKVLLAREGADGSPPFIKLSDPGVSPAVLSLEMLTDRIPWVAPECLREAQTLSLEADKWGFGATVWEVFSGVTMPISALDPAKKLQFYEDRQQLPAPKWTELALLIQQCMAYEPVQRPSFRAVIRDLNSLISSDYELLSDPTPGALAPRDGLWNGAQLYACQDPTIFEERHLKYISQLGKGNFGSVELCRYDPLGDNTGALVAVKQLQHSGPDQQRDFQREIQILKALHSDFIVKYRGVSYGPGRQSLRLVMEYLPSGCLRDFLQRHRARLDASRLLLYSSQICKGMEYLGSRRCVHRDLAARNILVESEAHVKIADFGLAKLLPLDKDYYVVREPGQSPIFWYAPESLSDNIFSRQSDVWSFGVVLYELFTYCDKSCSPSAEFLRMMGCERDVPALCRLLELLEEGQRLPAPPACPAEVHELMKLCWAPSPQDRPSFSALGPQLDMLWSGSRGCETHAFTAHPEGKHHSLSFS

**Q.** With `CCC(Cn1ccc2cnc(Nc3cnn(CC(=O)O)c3)nc21)C(C)C` (centres unmarked) [Compound 29, 2-(4-((7-(2-ethyl-3-methylbutyl)-7H-pyrrolo[2,3-d]pyrimidin-2-yl)amino)-1H-pyrazol-1-yl)acetic acid] as the compound, how does the IC50 (JAK3) read?
**A.** < 100 nM

**Q.** What about the IC50 (TYK2) of the same compound?
**A.** < 100 nM

**Q.** What about the IC50 (JAK1) of the same compound?
**A.** < 100 nM

**Q.** What about the IC50 (JAK2) of the same compound?
**A.** < 100 nM

**Q.** `CCOC(=O)CCn1cc(Nc2ncc3ccn(CC(CC)C(C)C)c3n2)cn1` (centres unmarked) [Compound 30, ethyl 3-(4-((7-(2-ethyl-3-methylbutyl)-7H-pyrrolo[2,3-d]pyrimidin-2-yl)amino)-1H-pyrazol-1-yl)propanoate] was tested. Which IC50 (JAK3) did it give?
**A.** < 100 nM

**Q.** What about the IC50 (TYK2) of the same compound?
**A.** < 100 nM

**Q.** What about the IC50 (JAK1) of the same compound?
**A.** < 100 nM

**Q.** And the IC50 (JAK2)?
**A.** < 100 nM

**Q.** Which IC50 (JAK3) does the source give for `CCC(Cn1ccc2cnc(Nc3cnn(CCC(=O)O)c3)nc21)C(C)C` (centres unmarked) [Compound 31, 3-(4-((7-(2-ethyl-3-methylbutyl)-7H-pyrrolo[2,3-d]pyrimidin-2-yl)amino)-1H-pyrazol-1-yl)propanoic acid] here?
**A.** < 100 nM

**Q.** What about the IC50 (TYK2) of the same compound?
**A.** < 100 nM

**Q.** What about the IC50 (JAK1) of the same compound?
**A.** < 100 nM

**Q.** And the IC50 (JAK2)?
**A.** < 100 nM

**Q.** Which results are given for `CCOC(=O)Cn1cc(Nc2ncc3ccn(CC45CC6CC(CC(C6)C4)C5)c3n2)cn1` [Compound 34, ethyl 2-(4-((7-(((s,3s)-adamantan-1-yl)methyl)-7H-pyrrolo[2,3-d]pyrimidin-2-yl)amino)-1H-pyrazol-1-yl)acetate]?
**A.** IC50 (JAK3): < 100 nM; IC50 (TYK2): < 100 nM; IC50 (JAK1): 100 to 1000 nM; IC50 (JAK2): < 100 nM

**Q.** `CCOC(=O)Cn1cc(Nc2ncc3ccn(CC4CCCCC4(F)F)c3n2)cn1` (centres unmarked) [Compound 35, ethyl 2-(4-((7-((2,2-difluorocyclohexyl)methyl)-7H-pyrrolo[2,3-d]pyrimidin-2-yl)amino)-1H-pyrazol-1-yl)acetate] was tested. Which IC50 (JAK3) did it give?
**A.** < 100 nM

**Q.** And the IC50 (TYK2)?
**A.** < 100 nM

**Q.** What about the IC50 (JAK1) of the same compound?
**A.** < 100 nM

**Q.** What about the IC50 (JAK2) of the same compound?
**A.** < 100 nM

**Q.** Which results are given for `CCOC(=O)Cn1cc(Nc2ncc3ccn(CC4CCCC(F)(F)C4)c3n2)cn1` (centres unmarked) [Compound 36, ethyl 2-(4-((7-((3,3-difluorocyclohexyl)methyl)-7H-pyrrolo[2,3-d]pyrimidin-2-yl)amino)-1H-pyrazol-1-yl)acetate]?
**A.** IC50 (JAK3): < 100 nM; IC50 (TYK2): < 100 nM; IC50 (JAK1): < 100 nM; IC50 (JAK2): < 100 nM

**Q.** For `O=C(O)Cn1cc(Nc2ncc3ccn(CC4CCCCC4(F)F)c3n2)cn1` (centres unmarked) [Compound 37, 2-(4-((7-((2,2-difluorocyclohexyl)methyl)-7H-pyrrolo[2,3-d]pyrimidin-2-yl)amino)-1H-pyrazol-1-yl)acetic acid], which IC50 (JAK3) is on record?
**A.** < 100 nM

**Q.** What about the IC50 (TYK2) of the same compound?
**A.** < 100 nM

**Q.** And the IC50 (JAK1)?
**A.** < 100 nM

**Q.** What about the IC50 (JAK2) of the same compound?
**A.** < 100 nM

**Q.** `O=C(O)Cn1cc(Nc2ncc3ccn(CC4CCCC(F)(F)C4)c3n2)cn1` (centres unmarked) [Compound 38, 2-(4-((7-((3,3-difluorocyclohexyl)methyl)-7H-pyrrolo[2,3-d]pyrimidin-2-yl)amino)-1H-pyrazol-1-yl)acetic acid] was tested. Which IC50 (JAK3) did it give?
**A.** < 100 nM

**Q.** What about the IC50 (TYK2) of the same compound?
**A.** < 100 nM

**Q.** And the IC50 (JAK1)?
**A.** < 100 nM

**Q.** And the IC50 (JAK2)?
**A.** < 100 nM

**Q.** `CCOC(=O)Cn1cc(Nc2ncc3ccn(CC4CC5CCC4C5)c3n2)cn1` (centres unmarked) [Compound 40, ethyl 2-(4-((7-(bicyclo[2.2.1]heptan-2-ylmethyl)-7H-pyrrolo[2,3-d]pyrimidin-2-yl)amino)-1H-pyrazol-1-yl)acetate] was tested. Which IC50 (JAK3) did it give?
**A.** < 100 nM

**Q.** What about the IC50 (TYK2) of the same compound?
**A.** < 100 nM

**Q.** What about the IC50 (JAK1) of the same compound?
**A.** < 100 nM

**Q.** And the IC50 (JAK2)?
**A.** < 100 nM

**Q.** With `CCOC(=O)Cn1cc(Nc2ncc3ccn(CC4(C)CCCC4)c3n2)cn1` [Compound 41, ethyl 2-(4-((7-((1-methylcyclopentyl)methyl)-7H-pyrrolo[2,3-d]pyrimidin-2-yl)amino)-1H-pyrazol-1-yl)acetate] as the compound, how does the IC50 (JAK3) read?
**A.** < 100 nM

**Q.** What about the IC50 (TYK2) of the same compound?
**A.** < 100 nM

**Q.** What about the IC50 (JAK1) of the same compound?
**A.** < 100 nM

**Q.** And the IC50 (JAK2)?
**A.** < 100 nM

**Q.** For `CCOC(=O)Cn1cc(Nc2ncc3ccn(CC4CCCCC4C)c3n2)cn1` (centres unmarked) [Compound 42, ethyl 2-(4-((7-((2-methylcyclohexyl)methyl)-7H-pyrrolo[2,3-d]pyrimidin-2-yl)amino)-1H-pyrazol-1-yl)acetate], which IC50 (JAK3) is on record?
**A.** < 100 nM

**Q.** What about the IC50 (TYK2) of the same compound?
**A.** < 100 nM

**Q.** And the IC50 (JAK1)?
**A.** < 100 nM

**Q.** What about the IC50 (JAK2) of the same compound?
**A.** < 100 nM

**Q.** With `CCOC(=O)Cn1cc(Nc2ncc3ccn(CC4CCCCCC4)c3n2)cn1` [Compound 43, ethyl 2-(4-((7-(cycloheptylmethyl)-7H-pyrrolo[2,3-d]pyrimidin-2-yl)amino)-1H-pyrazol-1-yl)acetate] as the compound, how does the IC50 (JAK3) read?
**A.** < 100 nM

**Q.** And the IC50 (TYK2)?
**A.** < 100 nM

**Q.** And the IC50 (JAK1)?
**A.** 100 to 1000 nM

**Q.** And the IC50 (JAK2)?
**A.** < 100 nM

**Q.** How did the IC50 (JAK3) turn out when `CCOC(=O)Cn1ccc(Nc2ncc3ccn(CC(CC)CC)c3n2)n1` [Compound 44, ethyl 2-(3-((7-(2-ethylbutyl)-7H-pyrrolo[2,3-d]pyrimidin-2-yl)amino)-1H-pyrazol-1-yl)acetate] was run?
**A.** 100 to 1000 nM

**Q.** And the IC50 (TYK2)?
**A.** 100 to 1000 nM

**Q.** What about the IC50 (JAK1) of the same compound?
**A.** 1000 to 10000 nM

**Q.** And the IC50 (JAK2)?
**A.** 100 to 1000 nM

**Q.** How did the IC50 (JAK3) turn out when `CCOC(=O)Cn1cc(Nc2ncc3ccn(CC4CCCC(C)C4)c3n2)cn1` (centres unmarked) [Compound 45, ethyl 2-(4-((7-((3-methylcyclohexyl)methyl)-7H-pyrrolo[2,3-d]pyrimidin-2-yl)amino)-1H-pyrazol-1-yl)acetate] was run?
**A.** < 100 nM

**Q.** What about the IC50 (TYK2) of the same compound?
**A.** < 100 nM

**Q.** What about the IC50 (JAK1) of the same compound?
**A.** < 100 nM

**Q.** And the IC50 (JAK2)?
**A.** < 100 nM

**Q.** `CCOC(=O)Cn1cc(Nc2ncc3ccn(CC4CCC(C)CC4)c3n2)cn1` (centres unmarked) [Compound 46, ethyl 2-(4-((7-((4-methylcyclohexyl)methyl)-7H-pyrrolo[2,3-d]pyrimidin-2-yl)amino)-1H-pyrazol-1-yl)acetate] was tested. Which IC50 (JAK3) did it give?
**A.** < 100 nM

**Q.** What about the IC50 (TYK2) of the same compound?
**A.** < 100 nM

**Q.** And the IC50 (JAK1)?
**A.** < 100 nM

**Q.** What about the IC50 (JAK2) of the same compound?
**A.** < 100 nM

**Q.** Which results are given for `CCOC(=O)Cn1cc(Nc2ncc3ccn(CC4(C)CCCCC4)c3n2)cn1` [Compound 47, ethyl 2-(4-((7-((1-methylcyclohexyl)methyl)-7H-pyrrolo[2,3-d]pyrimidin-2-yl)amino)-1H-pyrazol-1-yl)acetate]?
**A.** IC50 (JAK3): < 100 nM; IC50 (TYK2): < 100 nM; IC50 (JAK1): < 100 nM; IC50 (JAK2): < 100 nM

**Q.** With `CCOC(=O)Cn1cc(Nc2ncc3ccn(C[C@@H]4C[C@@H]5C[C@@H]5C4)c3n2)cn1` [Compound 48, ethyl 2-(4-((7-(((1R,3r,5S)-bicyclo[3.1.0]hexan-3-yl)methyl)-7H-pyrrolo[2,3-d]pyrimidin-2-yl)amino)-1H-pyrazol-1-yl)acetate] as the compound, how does the IC50 (JAK3) read?
**A.** < 100 nM

**Q.** What about the IC50 (TYK2) of the same compound?
**A.** < 100 nM

**Q.** And the IC50 (JAK1)?
**A.** < 100 nM

**Q.** What about the IC50 (JAK2) of the same compound?
**A.** < 100 nM

**Q.** `CCOC(=O)Cn1cc(Nc2ncc3ccn(CC(CC)C(C)C)c3n2)cn1` (centres unmarked) [Compound 49, ethyl 2-(4-((7-(2-ethyl-3-methylbutyl)-7H-pyrrolo[2,3-d]pyrimidin-2-yl)amino)-1H-pyrazol-1-yl)acetate] was tested. Which IC50 (JAK3) did it give?
**A.** < 100 nM

**Q.** What about the IC50 (TYK2) of the same compound?
**A.** < 100 nM

**Q.** What about the IC50 (JAK1) of the same compound?
**A.** < 100 nM

**Q.** What about the IC50 (JAK2) of the same compound?
**A.** < 100 nM

**Q.** With `CCOC(=O)Cn1cc(Nc2ncc3ccn(CC(C(C)C)C(C)C)c3n2)cn1` [Compound 50, ethyl 2-(4-((7-(2-isopropyl-3-methylbutyl)-7H-pyrrolo[2,3-d]pyrimidin-2-yl)amino)-1H-pyrazol-1-yl)acetate] as the compound, how does the IC50 (JAK3) read?
**A.** < 100 nM

**Q.** What about the IC50 (TYK2) of the same compound?
**A.** < 100 nM

**Q.** And the IC50 (JAK1)?
**A.** < 100 nM

**Q.** And the IC50 (JAK2)?
**A.** < 100 nM

**Q.** How did the IC50 (JAK3) turn out when `CCOC(=O)Cn1cc(Nc2ncc3ccn(C[C@H]4CC[C@H](O)CC4)c3n2)cn1` [Compound 51, ethyl 2-(4-((7-(((1r,4r)-4-hydroxycyclohexyl)methyl)-7H-pyrrolo[2,3-d]pyrimidin-2-yl)amino)-1H-pyrazol-1-yl)acetate] was run?
**A.** < 100 nM

**Q.** What about the IC50 (TYK2) of the same compound?
**A.** < 100 nM

**Q.** What about the IC50 (JAK1) of the same compound?
**A.** < 100 nM

**Q.** What about the IC50 (JAK2) of the same compound?
**A.** < 100 nM
